Like-named read-outs stand apart in the source and are kept apart here. Each block holds one molecule with its values, some of them ahead of it.
How the values were obtained:
[1] = target: T1, GST-CDK10/Strep2-CycM (CDK10/CycM) (Homo sapiens, UniProt Q15131); assay: ADP-Glo luminescent kinase assay, CDK10tide (Jar1) peptide; assay type: biochemical
T1 construct: GST-CDK10 co-expressed with Strep2-CycM (pFastBacDual) in Sf9 cells, glutathione sepharose purified heterodimer, tags kept; with Cyclin-Q
T1 sequence (Q8N1B3 whole entry partner, one chain of several): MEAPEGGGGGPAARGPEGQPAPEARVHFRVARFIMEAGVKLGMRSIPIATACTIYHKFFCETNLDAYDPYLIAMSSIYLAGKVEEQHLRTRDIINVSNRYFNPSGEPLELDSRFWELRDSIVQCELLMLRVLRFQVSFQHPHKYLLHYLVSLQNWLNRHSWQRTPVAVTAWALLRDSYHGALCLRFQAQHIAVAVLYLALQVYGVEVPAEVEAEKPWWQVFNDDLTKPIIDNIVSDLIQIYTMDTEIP
From the text: ADP-Glo luminescent kinase assay, CDK10tide (Jar1) peptide on GST-CDK10/Strep2-CycM (CDK10/CycM)

[2] = target: T1, GST-CDK10/Strep2-CycM (CDK10/CycM); assay: in vitro kinase assay; assay type: biochemical; settings: for inhibition at 1 µM: read-out: % inhibition at 1 uM
[3] = substrate: Nc1ncnc2c1ncn2[C@@H]1O[C@H](COP(=O)(O)OP(=O)(O)OP(=O)(O)O)[C@@H](O)[C@H]1O; assay: ADP-Glo luminescent kinase assay, ATP titration, Michaelis-Menten; assay type: biochemical, Homo sapiens; settings: […] CDK10tide, […] enzyme, […] ATP, […] MgCl2, pH […]
[4] = read-out: CDK10/CycM (measured herein)

Molecule: CCc1cnn2c(NCc3ccc[n+]([O-])c3)cc(N3CCCC[C@H]3CCO)nc12 [dinaciclib]
IC50 ([1]; read-out: CDK9/CycT1 (measured herein)): 13 nM

Molecule: CC[C@H](CO)Nc1nc(NCc2ccc(-c3ccccn3)cc2)c2ncn(C(C)C)c2n1 [CR8]
inhibition at 1 µM [2]: < 50%

Molecule: meriolin
% inhibition at 1 uM ([2]; data not shown, text: not greater than […]): < 50%

Molecule: CC(=O)N[C@@H]1CCC[C@H](C(=O)Nc2cc(-c3cnn4c3CC(C)(C)C4)c(Cl)cn2)C1 [AZD4573]
IC50 [1, 4]: 36 nM

Molecule: CC[C@H](CO)Nc1nc(NCc2ccccc2)c2ncn(C(C)C)c2n1 [roscovitine]
inhibition at 1 µM [2]: < 50%

B1: GST-CDK10/Strep2-CycM (CDK10/CycM) (Homo sapiens) (protein)
chain: MAEPDLECEQIRLKCIRKEGFFTVPPEHRLGRCRSVKEFEKLNRIGEGTYGIVYRARDTQTDEIVALKKVRMDKEKDGIPISSLREITLLLRLRHPNIVELKEVVVGNHLESIFLVMGYCEQDLASLLENMPTPFSEAQVKCIVLQVLRGLQYLHRNFIIHRDLKVSNLLMTDKGCVKTADFGLARAYGVPVKPMTPKVVTLWYRAPELLLGTTTQTTSIDMWAVGCILAELLAHRPLLPGTSEIHQIDLIVQLLGTPSENIWPGFSKLPLVGQYSLRKQPYNNLKHKFPWLSEAGLRLLHFLFMYDPKKRATAGDCLESSYFKEKPLPCEPELMPTFPHHRNKRAAPATSEGQSKRCKP
notes: GST-CDK10 co-expressed with Strep2-CycM (pFastBacDual) in Sf9 cells, glutathione sepharose purified heterodimer, tags kept; with Cyclin-Q
Km [3]: 177 µM

The next lines start with the values.

inhibition at 1 µM [2]: < 50%
Molecule: CC(=O)c1c(C)c2cnc(Nc3ccc(N4CCNCC4)cn3)nc2n(C2CCCC2)c1=O [palbociclib]

inhibition at 1 µM [2]: < 50%
Molecule: Cn1cnc2c(NCc3ccccc3)nc(NCCO)nc21 [olomoucine]

IC50 [1, 4]: 280 nM
Molecule: CN1CC[C@H](c2c(O)cc(O)c3c(=O)cc(-c4ccccc4Cl)oc23)[C@H]1CO [riviciclib]
